Results as given in patent US6551390B1, “Composition containing two different disazodyestuffs useful for ink jet recording” (Avecia Limited, priority 1998, dated 2003).

Assay: Aqueous solubility of dyes and dye composition
Assay type: physicochemical
Conditions: aqueous solubility at 20° C. and pH 9.5
Description: The aqueous solubility of Composition (1), Dye (A) and Dye (B) at 20° C. and pH 9.5 is: […]

Solubility (%): 10.7%
SMILES: COc1cc(N=Nc2cccc(S(=O)(=O)O)c2)ccc1NC(=O)Nc1ccc(N=Nc2cccc(S(=O)(=O)O)c2)cc1OC [Dye (A), CI Direct Yellow 132]
